Experiments:
Lck(h) = Lck(h) (Homo sapiens, UniProt P06239); assay: kinase panel; format: biochemical
From the text: We profiled three compounds from the series across the kinome (Table S1).
Ta b l e S1. The % inhibition of compounds 4, 5r [SU1261], and 6g [SU1349] against a
panel of kinase enzymes. We proϐiled three compounds from the series across 231
kinases. For SU1349, given its structural similarity with SU1261, we selected 98 from the
Tested kinase % inhibiƟon

[1] = test system: IKKα-mediated p100 phosphorylation (Ser866/870) in U2OS cells; assay: FCS-stimulated p100 phosphorylation (Ser866/870), Western blotting; format: cell-based; settings: Homo sapiens, 1 h pre-treatment, FCS 10% 4 h
Procedure: (§1) To assess the translation of the biochemical potencies and selectivities described above to a cell-based setting, exemplars from the series were initially examined for inhibitory action against IKKs in the U2OS osteosarcoma cell line. This cell type was utilised to represent cells with a proliferative phenotype dependent on the constitutively activated IKKα-mediated non-canonical NF-κB pathway. Compounds 5r [SU1261]
(§2) U2OS cells were cultured in McCoy’s 5A Modified Medium, and PC-3M-Luc-C6 prostate cancer cells were cultured in Minimum Essential Medium (MEM), each containing 10% (v/v) Foetal Calf Serum (FCS), L-glutamine ([…]), and penicillin/streptomycin (250 units/mL; 100 μg/mL) and incubated in a humidified atmosphere at 37 °C with 5% (v/v) CO2. Cells were grown to near confluence and prior to experimentation rendered quiescent by serum deprivation for 24 h.
For examination of potential effects of compound on non-canonical NF-κB signalling, cells were exposed to vehicle (DMSO; 0.03–0.05% (v/v)) or increasing concentrations of compounds (0.01–30 µM) for 1 h prior to treatment with FCS (10% (v/v); for U2OS cells) or LTα1β2 (20 ng/mL; for PC-3M cells) for 4 h. The status of p-p100 (Ser 866/870) in whole-cell extracts prepared from 12-well plates was assessed by Western blotting, as described in McKenzie et al.. […] Thereafter, p52 and RelB status in crude nuclear extracts normalised for protein amounts were assessed by Western blotting.
Each figure/panel of Western blotting data represents one of at least three separate experiments. Western blots were scanned and imaged using Adobe Photoshop 5.0.2 software and polypeptide bands were semi-quantified by scanning densitometry using the Scion Image program. Data were normalised to fold expression/inhibition relative to ‘agonist plus vehicle’ treatment and expressed as mean ± s.e.m. […]

[2] = test system: IKKβ-mediated IκBα degradation in U2OS cells; assay: TNFα-stimulated IκBα degradation, Western blotting; format: cell-based; settings: for effect on TNFα-stimulated IκBα degradation: 0.3–30 µM
Procedure: as §1, §2
To examine the potential impact of compounds on canonical NF-κB signalling, cells were then exposed to vehicle (DMSO; 0.05% (v/v)) or increasing concentrations of compounds (0.01–30 µM) for 1 h prior to treatment with TNF⍺ (20 ng/mL) for 30 min. Whole-cell extracts were prepared, and the status of IκB⍺, phospho-p65 (Ser536), p65, and phospho-p105 ([…]) was also assessed by Western blotting.
Each figure/panel of Western blotting data represents one of at least three separate experiments. Western blots were scanned and imaged using Adobe Photoshop 5.0.2 software and polypeptide bands were semi-quantified by scanning densitometry using the Scion Image program. Data were normalised to fold expression/inhibition relative to ‘agonist plus vehicle’ treatment and expressed as mean ± s.e.m. IC50 values were established by curve fitting using the Hill equation.
Figure 11 Compound 5r [SU1261] inhibits FCS-stimulated p100 phosphorylation (Ser866/870) with no impact on TNFα-stimulated IkBα degradation and limited impact on phosphorylation of p65 (Ser536) in U2OS osteosarcoma cells. […] (0.3–30 µM) for 1 h prior to treatment with FCS (10% (v/v)) for 4 h, and phospho-p100 (Ser866/870) was assessed by Western blotting. […]

IKKβ = molecular target: T1, IKKβ (Homo sapiens, UniProt O14920); assay: DELFIA kinase assay, IKKβ; format: biochemical; settings: read-out: Ki Values IKKβ
T1 sequence (O14920 1-756): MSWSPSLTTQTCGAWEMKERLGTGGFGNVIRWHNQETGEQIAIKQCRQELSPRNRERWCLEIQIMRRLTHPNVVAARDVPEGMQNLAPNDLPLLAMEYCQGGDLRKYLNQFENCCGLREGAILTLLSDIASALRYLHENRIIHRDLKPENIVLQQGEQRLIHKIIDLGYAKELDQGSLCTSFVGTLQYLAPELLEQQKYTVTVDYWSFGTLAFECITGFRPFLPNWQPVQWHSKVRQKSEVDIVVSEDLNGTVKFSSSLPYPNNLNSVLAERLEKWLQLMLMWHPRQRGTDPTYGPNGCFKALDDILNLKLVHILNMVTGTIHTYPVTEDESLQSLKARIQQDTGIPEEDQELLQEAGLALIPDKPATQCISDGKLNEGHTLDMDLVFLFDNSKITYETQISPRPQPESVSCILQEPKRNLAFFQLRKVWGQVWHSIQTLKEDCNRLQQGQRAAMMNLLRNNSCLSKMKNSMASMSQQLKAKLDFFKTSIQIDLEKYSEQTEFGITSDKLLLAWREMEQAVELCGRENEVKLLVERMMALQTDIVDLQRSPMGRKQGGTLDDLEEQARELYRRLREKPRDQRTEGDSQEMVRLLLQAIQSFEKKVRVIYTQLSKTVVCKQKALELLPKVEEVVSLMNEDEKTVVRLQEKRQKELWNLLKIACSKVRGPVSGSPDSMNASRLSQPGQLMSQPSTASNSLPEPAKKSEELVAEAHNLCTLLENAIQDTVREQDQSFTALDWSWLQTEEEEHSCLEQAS
Procedure: IKKα and IKKβ inhibitory activity were determined using a dissociation-enhanced ligand fluorescent immunoassay (DELFIA) based on the protocol of HTScan™ IKKβ Kinase Assay (Cell Signaling Technology, Danvers, MA, USA) as described in [24].

Chain of Lck(h) (P06239 whole entry): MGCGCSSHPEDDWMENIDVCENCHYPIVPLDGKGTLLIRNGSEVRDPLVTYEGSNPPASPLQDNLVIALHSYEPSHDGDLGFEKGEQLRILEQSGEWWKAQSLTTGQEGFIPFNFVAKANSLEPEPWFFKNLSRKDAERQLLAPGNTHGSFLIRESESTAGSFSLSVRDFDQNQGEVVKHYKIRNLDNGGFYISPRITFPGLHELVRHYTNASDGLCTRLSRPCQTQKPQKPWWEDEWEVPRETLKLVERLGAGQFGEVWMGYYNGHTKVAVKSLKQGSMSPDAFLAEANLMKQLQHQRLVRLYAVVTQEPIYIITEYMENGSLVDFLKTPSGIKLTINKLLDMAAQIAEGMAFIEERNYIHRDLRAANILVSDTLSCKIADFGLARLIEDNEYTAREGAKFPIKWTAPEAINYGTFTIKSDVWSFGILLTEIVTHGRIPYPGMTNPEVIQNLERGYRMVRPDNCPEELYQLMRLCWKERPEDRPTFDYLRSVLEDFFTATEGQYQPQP

Row | Structure (SMILES) | inhibition at 1 µM (Lck(h)) | IC50 [1] | effect on TNFα-stimulated IκBα degradation [2] | Ki (IKKβ) | IC50 ([2]; Homo sapiens, 1 h pre-treatment, TNFα 30 min)
1 | Nc1n[nH]c2ccc(-c3ccnc4[nH]c(-c5cccc(OCc6ccccc6)c5)cc34)cc12 [Compound 5r [SU1261]] | 34% | 2870 nM | did not impact | 680 nM | –
2 | Nc1n[nH]c2ccc(-c3ccnc4[nH]c(-c5ccnc(OCc6ccccc6)c5)cc34)cc12 [Compound 6g [SU1349]] | -19% | 8750 nM | no significant inhibition | 3350 nM | –
3 | Nc1n[nH]c2ccc(-c3ccnc4[nH]c(-c5ccccc5)cc34)cc12 [Compound 4] | 48% | 690 nM | – | 15 nM | 620 nM

Source: publication PMC11314561, “Design and Synthesis of Novel Aminoindazole-pyrrolo[2,3-b]pyridine Inhibitors of IKKα That Selectively Perturb Cellular Non-Canonical NF-κB Signalling” (Molecules, 2024)
